According to publication PMC7765920 (Molecules, 2020):
Where two headings read alike, the source gives them in different places. Marks after values point to notes of the source that are not given here.

Legend:
human recombinant MAO-A = molecular target: T1, human recombinant MAO-A (Homo sapiens, UniProt P21397); experiment: MAO-GLO luminescence assay of MAO-A catalytic activity; type: biochemical; settings: for remaining activity at 1 µM: read-out: MAO-A residual activity
T1 sequence (P21397 1-527): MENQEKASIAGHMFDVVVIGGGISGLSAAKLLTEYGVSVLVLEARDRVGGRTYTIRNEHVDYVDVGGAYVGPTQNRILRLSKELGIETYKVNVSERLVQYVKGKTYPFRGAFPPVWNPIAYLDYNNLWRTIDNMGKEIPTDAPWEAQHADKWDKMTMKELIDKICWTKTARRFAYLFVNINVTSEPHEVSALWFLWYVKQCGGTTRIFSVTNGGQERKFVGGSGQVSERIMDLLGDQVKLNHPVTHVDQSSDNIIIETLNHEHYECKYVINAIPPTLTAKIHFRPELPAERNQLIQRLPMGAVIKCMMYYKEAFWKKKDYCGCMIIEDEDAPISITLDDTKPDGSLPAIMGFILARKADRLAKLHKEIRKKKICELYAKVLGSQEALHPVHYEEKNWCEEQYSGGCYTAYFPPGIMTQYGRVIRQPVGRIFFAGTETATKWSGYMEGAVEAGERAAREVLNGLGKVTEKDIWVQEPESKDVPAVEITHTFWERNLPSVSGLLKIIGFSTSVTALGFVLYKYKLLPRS
Experimental: (§1) Optimization of the compounds, however, aimed predominantly at elimination of MAO-A-inhibitory activity while keeping DYRK1A inhibitory potency, and not at achieving high selectivity for DYRK1A over CLK1. The tests were performed as described by us before in detail. Due to the very large number of test compounds (more than 60), a first screening was performed at a single inhibitor concentration of 1 µM.
(§2) Inhibitors were dissolved in DMSO at a concentration of 10 mM and stored at […]. Working solutions were prepared to achieve a final concentration of 1 µM in the enzyme assays.
Catalytic activity of monoamine oxidase A (MAO-A) was measured by using the luminescence-based MAO-GLO^TM Assay from Promega. Recombinant MAO-A converts a luminogenic MAO substrate into luciferin, which is, in turn, luminometrically detected in a luciferase reaction. The amount of light produced is directly proportional to MAO activity. […] Inhibitory effects of the tested compounds were calculated relative to the activity of control reactions that were run in the absence of inhibitors.

[1] = molecular target: T2, GST-DYRK1A-ΔC (amino acids 1–499 of rat DYRK1A) (Rattus norvegicus, UniProt Q63470); experiment: Kinase-GLO luminescent assay of DYRK1A catalytic activity; type: biochemical; settings: for remaining activity at 1 µM: read-out: DYRK1A residual activity
T2 construct: containing amino acids 1–499 of rat DYRK1A; made in house; host or cells: E. coli
Experimental: as §1, §2
(§3) Recombinant kinases were purified from E. coli as GST (glutathione S-transferase) fusion constructs by affinity adsorption to glutathione-Sepharose. […] Catalytic activity of the kinases was measured with the help of the Kinase-GLO^TM Luminescent Assay from Promega. Assays were performed in a total volume of 10 μL in kinase buffer (25 mM Hepes pH 7.4, 0.5 mM DTT, 5 mM MgCl2, 5 μM ATP) with appropriate peptide substrates (20 μM DYRKtide for the DYRKs and 100 μM DYRKtide for HIPK2, […]; or 100 μM RS peptide for CLK1, […]). Kinases amounts in the assays were adjusted so that approximately 90% of the ATP in the assay was consumed in control samples without inhibitor. Kinase reactions were incubated at room temperature for 30 min before 10 μL Kinase-GLO reagent was added for luminometric measurement of the ATP that was not consumed by the kinases. After incubation at room temperature for an additional 10 min, luminescence was recorded for 1 s (Berthold Orion Microplate Luminometer). ATP consumption in the control samples without inhibitor was set as 100% catalytic activity, and the inhibitory effects of the test compounds were calculated relative to this value.

[2] = molecular target: T3, GST-CLK1cat (amino acids 141–484 of human CLK1) (Homo sapiens, UniProt P49759); experiment: Kinase-GLO luminescent assay of CLK1 catalytic activity; type: biochemical; settings: for remaining activity at 1 µM: read-out: CLK1 residual activity
T3 construct: containing amino acids 141–484 of human CLK1; made in house; host or cells: E. coli
Experimental: as §1, §2, §3

[3] = system: GST-DYRK1A-ΔC (amino acids 1–499 of rat DYRK1A); experiment: Kinase-GLO luminescent assay of DYRK1A catalytic activity; type: biochemical; settings: ratio of the MAO-A and DYRK1A IC50 values of Table 2
[4] = 1 µM inhibitor concentration, residual activity relative to control without inhibitor

T3 sequence (P49759 141-484): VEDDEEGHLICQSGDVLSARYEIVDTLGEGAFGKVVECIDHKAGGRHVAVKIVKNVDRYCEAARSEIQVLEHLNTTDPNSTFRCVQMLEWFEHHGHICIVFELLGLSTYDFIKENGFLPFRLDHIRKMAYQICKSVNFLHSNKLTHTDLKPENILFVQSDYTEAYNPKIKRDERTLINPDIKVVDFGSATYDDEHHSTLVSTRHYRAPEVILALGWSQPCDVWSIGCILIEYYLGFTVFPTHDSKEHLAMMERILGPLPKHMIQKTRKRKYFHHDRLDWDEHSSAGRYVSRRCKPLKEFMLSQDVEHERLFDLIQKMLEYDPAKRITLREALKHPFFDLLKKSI

Compound	remaining activity at 1 µM (human recombinant MAO-A; [4]) [%]	remaining activity at 1 µM [1, 4] [%]	remaining activity at 1 µM [2, 4] [%]	further results
COc1ccc2c3ccnc(C)c3n(CCN3CCOCC3)c2c1 [AnnH53, 4-[2-(7-Methoxy-1-methyl-9H-pyrido[3,4-b]indol-9-yl)-ethyl]morpholine]	70	33	77	melting point: 183 °C
COc1ccc2c3ccnc(C)c3n(C(C)=O)c2c1 [AnnH59, 1-(7-Methoxy-1-methyl-9H-pyrido[3,4-b]indol-9-yl)ethan-1-one]	19	30	15	
C#CCn1c2c(C)nccc2c2ccc(Cl)c(Cl)c21 [AnnH67, 7,8-Dichloro-1-methyl-9-(prop-2-yn-1-yl)-9H-pyrido[3,4-b]indole]	122	17	34	
CCc1nccc2c1[nH]c1cc(OC)ccc12 [AnnH89, 1-Ethyl-7-methoxy-9H-pyrido[3,4-b]indole]	34	37	7	
CCCCn1c2cc(OC)c(Cl)cc2c2ccnc(C)c21 [AnnH14, 9-Butyl-6-chloro-7-methoxy-1-methyl-9H-pyrido[3,4-b]indole]	56	94	62	
CCCCn1c2c(C)nccc2c2ccc(OC)c(Cl)c21 [AnnH11, 9-Butyl-8-chloro-7-methoxy-1-methyl-9H-pyrido[3,4-b]indole]	4	104	60	
COc1ccc2c3ccnc(Cl)c3n(CCCN(C)C)c2c1 [AnnH77, 3-(1-Chloro-7-methoxy-9H-pyrido[3,4-b]indol-9-yl)-N,N-dimethylpropan-1-amine]	123	63	86	melting point: 86 to 87 °C
COc1ccc2c3ccnc(C)c3n(CCCc3ccccc3)c2c1 [AnnH38, 7-Methoxy-1-methyl-9-(3-phenylpropyl)-9H-pyrido[3,4-b]indole]	127	12	31	
C#CCn1c2cc(OC)ccc2c2ccnc(Cl)c21 [AnnH74, 1-Chloro-7-methoxy-9-(prop-2-yn-1-yl)-9H-pyrido[3,4-b]indole]	112	12	46	
COc1ccc2c3ccnc(C)c3n(CC(=O)OC(C)C)c2c1 [AnnH27, Isopropyl 2-(7-methoxy-1-methyl-9H-pyrido[3,4-b]indol-9-yl)acetate]	72	4	79	
N#CCn1c2c(Br)nccc2c2ccc(Cl)c(Cl)c21 [AnnH79, 2-(1-Bromo-7,8-dichloro-9H-pyrido[3,4-b]indol-9-yl)-acetonitrile]	143	93	88	
COc1ccc2c3ccnc(C)c3n(CC#N)c2c1 [AnnH31, 2-(7-Methoxy-1-methyl-9H-pyrido[3,4-b]indol-9-yl)-acetonitrile]	75	8	11	Selectivity for DYRK1A over MAO-A [3]: 40
Cc1nccc2c3ccc(Cl)c(Cl)c3n(CCCN(C)C)c12 [AnnH71, 3-(7,8-Dichloro-1-methyl-9H-pyrido[3,4-b]-9-yl)-N,N-dimethylpropan-1-amine]	110	47	90	melting point: 126 to 128 °C
COc1ccc2c3ccnc(C)c3n(CCN3CCCC3)c2c1 [AnnH55, 7-Methoxy-1-methyl-9-[2-(pyrrolidin-1-yl)ethyl]-9H-pyrido[3,4-b]indole]	67	48	85	
Cc1nccc2c1C(=O)c1cc(O)ccc1-2 [AnnHT6, 7-Hydroxy-1-methyl-9H-indeno-[2,1-c]pyridin-9-one]	46	37	27	
CCOC(=O)Cn1c2cc(OC)ccc2c2ccnc(Cl)c21 [AnnH76, Ethyl 2-(1-Chloro-7-methoxy-9H-pyrido[3,4-b]indol-9-yl)acetate]	112	35	96	
Clc1ccc2c([nH]c3c(Br)nccc32)c1Cl [AnnH52, 1-Bromo-7,8-dichloro-9H-pyrido[3,4-b]indole]	118	36	45	
COc1ccc2c3ccnc(C)c3n(Cc3ccncc3)c2c1 [AnnH36, 7-Methoxy-1-methyl-9-(pyridin-4-yl-methyl)-9H-pyrido[3,4-b]indole]	19	59	62	
C#CCn1c2cc(OC)ccc2c2ccnc(C)c21 [AnnH44, 7-Methoxy-1-methyl-9-(prop-2-yn-1-yl)-9H-pyrido[3,4-b]indole]	22	2	17	
CCOC(=O)CCn1c2cc(OC)ccc2c2ccnc(C)c21 [AnnH32, Ethyl 3-(7-Methoxy-1-methyl-9H-pyrido[3,4-b]indol-9-yl)propanoate]				remaining activity at 1 µM (human recombinant MAO-A): 105%; remaining activity at 1 µM [1]: 12%; remaining activity at 1 µM [2]: 44%
CCOC(=O)Cn1c2cc(OC)ccc2c2ccnc(CC)c21 [AnnH88, Ethyl 2-(1-ethyl-7-methoxy-9H-pyrido[3,4-b]indol-9-yl)acetate]	137	47	52	
COc1ccc2c(c1)[nH]c1cnccc12 [norharmine (AnnH90), norharmine]	45	36	26	
7-Methoxy-1-methyl-9-(prop-2-yn-1-yl)-9H-pyrido[3,4-b]indole [AnnH70]				MAO-A residual activity (human recombinant MAO-A; [4]): 18%; DYRK1A residual activity [1, 4]: 6%; CLK1 residual activity [2, 4]: 17 *** %
COc1ccc2c(c1)/C(=C\C#N)c1c-2ccnc1C [AnnHT5, (2E)-(7-Methoxy-1-methyl-9H-indeno[2,1c]pyridin-9-ylidene)ethanenitrile]	65	35	7	
COc1ccc2c3ccnc(C)c3n(C/C=C/c3ccccc3)c2c1 [AnnH22, 7-Methoxy-1-methyl-9-((E)-3-phenylallyl)-9H-pyrido[3,4-b]indole]	39	3	15	
COc1ccc2c3ccnc(C)c3n(CC(=O)N(C)C)c2c1 [AnnH34, 2-(7-Methoxy-1-methyl-9H-pyrido[3,4-b]indol-9-yl)-N,N-dimethylacetamide]	130	75	78	
COc1ccc2c(c1)[nH]c1c(/C=C/c3ccccc3)nccc12 [AnnH18]	100	27	58	
